Test results: patent US20170252362A1, “METHODS & COMPOUNDS USEFUL IN HEMATOPOIETIC STEM CELL MEDICINE” (ECOLE POLYTECHNIQUE FEDERALE DE LAUSANNE (EPFL), priority 2014, published 2017)

Key:
[1] = test system: HSC mitochondrial activity; test: In vivo assay of HSC mitochondrial activity: TMRM flow cytometry of freshly isolated HSC from mice fed the compounds; set-up: species or system mouse; details: mice fed with the compounds
Description: The effect of agents on HSC mitochondrial activity has been assessed by measuring mitochondrial activity in vivo: freshly isolated HSC from mice fed with the compounds were stained by TMRM and analyzed by flow cytometry.

[2] = Konieczna et al., 2013; cited from earlier work
[3] = test system: hematopoietic stem and progenitor pool sizes in the bone marrow; test: Flow cytometry analysis of hematopoietic stem and progenitor pool sizes in bone marrow of mice fed the agent; assay type: in vivo, mouse; details: 1 week treatment through the food, flow cytometry
Protocol: Bone marrow (BM) cells were isolated from C57Bl/6J and C57Bl/6J Ly5.1 from crushed femora and tibia. Flow cytometry analysis of hematopoietic stem and progenitor cells was performed on freshly isolated bone marrow (BM). Cell suspensions were filtered through a 70 μm cell strainer and erythroid cells were eliminated by incubation with red blood cells lysis buffer (eBioscences). Lineage-positive cells were removed with a magnetic lineage depletion kit (Miltenyi Biotech). Cell suspensions were stained with a panel of specific antibodies for stem and progenitor cells and analyzed or FACS-sorted respectively on a BD LSRII and BD FACS Aria II.
C57Bl/6J and C57Bl/6J Ly5.1 were purchased from Charles River Laboratories International and maintained in micro-isolator cages. Mice were provided continuously with sterile food, water and bedding. Nicotinamide riboside (NR) (custom synthesized as triflate salt by Novalix in Strasbourg) was supplied in the food at 0.4 g/Kg mouse and mice were treated for 1 and 4 weeks respectively.

NC(=O)c1cccnc1 [NAM, Nicotinamide]
ability to reduce mitochondrial membrane potential in HSCs [1]: not able to significantly reduce mitochondrial membrane potential in HSCs
platelet levels in mice [2]: did not increase the platelet levels
hematopoietic stem and progenitor compartments in BM [3]: did not show significant expansion
